Drawing on patent US20230406885A1, “CYCLIC PEPTIDES FOR TRAPPING INTERLEUKIN-1 BETA” (MERCK SHARP & DOHME LLC, priority 2022, published 2023), this text covers IC50 for ten compounds.

Where a SMILES comes first, the peptide text is derived from it. [ ]: non-standard residue; d: D form. Trp(βS-Me,4-F) = C[C@@H](c1c[nH]c2cccc(F)c12)[C@H](N)C(=O)O; Bip(4'-COOH) = N[C@@H](Cc1ccc(-c2ccc(C(=O)O)cc2)cc1)C(=O)O; Phe(4-COOH) = N[C@@H](Cc1ccc(C(=O)O)cc1)C(=O)O; h3Pal(5-CN) = N#Cc1cncc(CC[C@H](N)C(=O)O)c1; Pro(4R-NH2) = N[C@H]1CN[C@H](C(=O)O)C1; Ala(4-THP) = N[C@@H](CC1CCOCC1)C(=O)O; hTyr = N[C@@H](CCc1ccc(O)cc1)C(=O)O; h4Pal = N[C@@H](CCc1ccncc1)C(=O)O; Aad = N[C@@H](CCCC(=O)O)C(=O)O; hLys = NCCCCC[C@H](N)C(=O)O; dDab = NCC[C@@H](N)C(=O)O; dNMeA = CN[C@H](C)C(=O)O

T1 sequence (P01584 117-269): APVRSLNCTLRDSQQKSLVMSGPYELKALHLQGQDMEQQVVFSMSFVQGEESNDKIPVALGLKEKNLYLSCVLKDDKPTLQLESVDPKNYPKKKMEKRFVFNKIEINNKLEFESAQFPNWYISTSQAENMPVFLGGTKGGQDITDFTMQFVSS

The experiment has as its target T1, Recombinant human IL-1β (Homo sapiens, UniProt P01584).
T1 construct: purchased BioLegend 579404
Description: IL-6 assay in MRC5 cells: inhibition of IL-1β induced IL-6 secretion (AlphaLISA). The class given is cell-based. The conditions noted are these: inhibition of IL-1β induced IL-6 secretion in MRC5 cells; IL-1β pre-incubated 1 hour with compound; read-out: MRC5 IC50. In outline:
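IL-1β at 2×EC80 in seeding medium (EMEM, 0.025% BSA) preincubated 1 h at ambient temperature with compound, then 3000 MRC5 cells/well added and incubated overnight at 37 °C, 5% CO2. IL-6 in conditioned medium quantified by AlphaLISA; IC50 from 4-parameter logistic fit.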
With `CC(C)C[C@@H]1NC(=O)[C@H](CCc2ccncc2)NC(=O)[C@H](Cc2ccc(-c3ccc(C(=O)O)cc3)cc2)NC(=O)CNC(=O)[C@@H](C)N(C)C(=O)[C@H](CC(=O)O)NC(=O)[C@H]([C@@H](C)c2c[nH]c3cccc(F)c23)NC(=O)[C@@H]2C[C@@H](N)CN2C(=O)CNC(=O)[C@H](Cc2ccc(C(=O)O)cc2)NC(=O)[C@H](Cc2c[nH]c3ccccc23)NC(=O)[C@H](Cc2ccc(-c3ccc(C(=O)O)cc3)cc2)NC(=O)[C@H](CCc2ccc(O)cc2)NC(=O)[C@@H](C)NC1=O` [Example 61] (cyclo([Bip(4'-COOH)]W[Phe(4-COOH)]G[Pro(4R-NH2)][Trp(βS-Me,4-F)]D[dNMeA]G[Bip(4'-COOH)][h4Pal]L[dA][hTyr])), the IC50 (in general, the midpoint of a concentration-inhibition curve) amounted to 0.312 nM. As for `CC(C)C[C@@H]1NC(=O)[C@H](CCCCCN)NC(=O)[C@H](Cc2ccc(-c3ccc(C(=O)O)cc3)cc2)NC(=O)CNC(=O)[C@@H](C)N(C)C(=O)[C@H](CC(=O)O)NC(=O)[C@H]([C@@H](C)c2c[nH]c3cccc(F)c23)NC(=O)[C@@H]2C[C@@H](N)CN2C(=O)CNC(=O)[C@H](Cc2ccc(C(=O)O)cc2)NC(=O)[C@H](Cc2c[nH]c3ccccc23)NC(=O)[C@H](Cc2ccc(-c3ccc(C(=O)O)cc3)cc2)NC(=O)[C@H](CCc2ccc(O)cc2)NC(=O)[C@@H](C)NC1=O` [Example 62] (cyclo([Bip(4'-COOH)]W[Phe(4-COOH)]G[Pro(4R-NH2)][Trp(βS-Me,4-F)]D[dNMeA]G[Bip(4'-COOH)][hLys]L[dA][hTyr])), the IC50 turned out to be 0.283 nM. In the case of `CC(C)C[C@@H]1NC(=O)[C@H](CCCC(N)=O)NC(=O)[C@H](Cc2ccc(-c3ccc(C(=O)O)cc3)cc2)NC(=O)CNC(=O)[C@@H](C)N(C)C(=O)[C@H](CC(=O)O)NC(=O)[C@H]([C@@H](C)c2c[nH]c3cccc(F)c23)NC(=O)[C@@H]2C[C@@H](N)CN2C(=O)CNC(=O)[C@H](Cc2ccc(C(=O)O)cc2)NC(=O)[C@H](Cc2c[nH]c3ccccc23)NC(=O)[C@H](Cc2ccc(-c3ccc(C(=O)O)cc3)cc2)NC(=O)[C@H](CCc2ccc(O)cc2)NC(=O)[C@@H](C)NC1=O` [Example 63] (cyclo([Bip(4'-COOH)]W[Phe(4-COOH)]G[Pro(4R-NH2)][Trp(βS-Me,4-F)]D[dNMeA]G[Bip(4'-COOH)][Aad](NH2)L[dA][hTyr])), the IC50 is 0.0629 nM. The same measure for `C[C@@H]1C(=O)NCC(=O)N[C@@H](Cc2ccc(-c3ccc(C(=O)O)cc3)cc2)C(=O)N[C@@H](CCCCN)C(=O)N[C@@H](CC2CCOCC2)C(=O)N[C@H](C)C(=O)N[C@@H](CCc2cncc(C#N)c2)C(=O)N[C@@H](Cc2ccc(-c3ccc(C(=O)O)cc3)cc2)C(=O)N[C@@H](Cc2c[nH]c3ccccc23)C(=O)N[C@@H](Cc2ccc(C(=O)O)cc2)C(=O)NCC(=O)N2C[C@H](N)C[C@H]2C(=O)N[C@@H]([C@@H](C)c2c[nH]c3cccc(F)c23)C(=O)N[C@@H](CC(=O)O)C(=O)N1C` [Example 64] (cyclo([Bip(4'-COOH)]W[Phe(4-COOH)]G[Pro(4R-NH2)][Trp(βS-Me,4-F)]D[dNMeA]G[Bip(4'-COOH)]K[Ala(4-THP)][dA][h3Pal(5-CN)])): 0.0182 nM; for `C[C@@H]1C(=O)NCC(=O)N[C@@H](Cc2ccc(-c3ccc(C(=O)O)cc3)cc2)C(=O)N[C@@H](CCCCN)C(=O)N[C@@H](CC2CCOCC2)C(=O)N[C@H](C)C(=O)N[C@@H](CCc2ccc(O)cc2)C(=O)N[C@@H](Cc2ccc(-c3ccc(C(=O)O)cc3)cc2)C(=O)N[C@@H](Cc2c[nH]c3ccccc23)C(=O)N[C@@H](Cc2ccc(C(=O)O)cc2)C(=O)NCC(=O)N2C[C@H](N)C[C@H]2C(=O)N[C@@H]([C@@H](C)c2c[nH]c3cccc(F)c23)C(=O)N[C@@H](CC(=O)O)C(=O)N1C` [Example 65] (cyclo([Bip(4'-COOH)]W[Phe(4-COOH)]G[Pro(4R-NH2)][Trp(βS-Me,4-F)]D[dNMeA]G[Bip(4'-COOH)]K[Ala(4-THP)][dA][hTyr])): 0.0158 nM; for `CC(C)C[C@@H]1NC(=O)[C@H](CCCCN)NC(=O)[C@H](Cc2ccc(-c3ccc(C(=O)O)cc3)cc2)NC(=O)CNC(=O)[C@@H](C)N(C)C(=O)[C@H](CC(=O)O)NC(=O)[C@H]([C@@H](C)c2c[nH]c3cccc(F)c23)NC(=O)[C@@H]2C[C@@H](N)CN2C(=O)CNC(=O)[C@H](Cc2ccc(C(=O)O)cc2)NC(=O)[C@H](Cc2c[nH]c3ccccc23)NC(=O)[C@H](Cc2ccc(-c3ccc(C(=O)O)cc3)cc2)NC(=O)[C@H](CCc2cncc(C#N)c2)NC(=O)[C@@H](C)NC1=O` [Example 66] (cyclo([Bip(4'-COOH)]W[Phe(4-COOH)]G[Pro(4R-NH2)][Trp(βS-Me,4-F)]D[dNMeA]G[Bip(4'-COOH)]KL[dA][h3Pal(5-CN)])): 0.0299 nM. The same measure for `CC(C)C[C@@H]1NC(=O)[C@H](CCCCN)NC(=O)[C@H](Cc2ccc(-c3ccc(C(=O)O)cc3)cc2)NC(=O)CNC(=O)[C@@H](C)N(C)C(=O)[C@H](CC(=O)O)NC(=O)[C@H]([C@@H](C)c2c[nH]c3cccc(F)c23)NC(=O)[C@@H]2C[C@@H](N)CN2C(=O)CNC(=O)[C@H](Cc2ccc(C(=O)O)cc2)NC(=O)[C@H](Cc2c[nH]c3ccccc23)NC(=O)[C@H](Cc2ccc(-c3ccc(C(=O)O)cc3)cc2)NC(=O)[C@H](CCc2ccc(O)cc2)NC(=O)[C@@H](C)NC1=O` [Example 67] (cyclo([Bip(4'-COOH)]W[Phe(4-COOH)]G[Pro(4R-NH2)][Trp(βS-Me,4-F)]D[dNMeA]G[Bip(4'-COOH)]KL[dA][hTyr])): 0.046 nM; for `CC(C)C[C@@H]1NC(=O)[C@H](CCCCN)NC(=O)[C@H](Cc2ccc(-c3ccc(C(=O)O)cc3)cc2)NC(=O)CNC(=O)[C@@H](C)N(C)C(=O)[C@H](CC(=O)O)NC(=O)[C@H]([C@@H](C)c2c[nH]c3cccc(F)c23)NC(=O)[C@@H]2C[C@@H](N)CN2C(=O)CNC(=O)[C@H](Cc2ccc(C(=O)O)cc2)NC(=O)[C@H](Cc2c[nH]c3ccccc23)NC(=O)[C@H](Cc2ccc(-c3ccc(C(=O)O)cc3)cc2)NC(=O)[C@H](CCc2ccc(O)cc2)NC(=O)[C@@H](CCN)NC1=O` [Example 68] (cyclo([Bip(4'-COOH)]W[Phe(4-COOH)]G[Pro(4R-NH2)][Trp(βS-Me,4-F)]D[dNMeA]G[Bip(4'-COOH)]KL[dDab][hTyr])): 0.296 nM; for `CC(C)C[C@@H]1NC(=O)[C@H](CCCCN)NC(=O)[C@H](Cc2ccc(-c3ccc(C(=O)O)cc3)cc2)NC(=O)CNC(=O)[C@@H](C)N(C)C(=O)[C@H](CC(=O)O)NC(=O)[C@H]([C@@H](C)c2c[nH]c3cccc(F)c23)NC(=O)[C@@H]2C[C@@H](N)CN2C(=O)CNC(=O)[C@H](Cc2ccc(C(=O)O)cc2)NC(=O)[C@H](Cc2c[nH]c3ccccc23)NC(=O)[C@H](Cc2ccc(-c3ccc(C(=O)O)cc3)cc2)NC(=O)[C@H](CCc2ccc(O)cc2)NC(=O)[C@@H](CO)NC1=O` [Example 69] (cyclo([Bip(4'-COOH)]W[Phe(4-COOH)]G[Pro(4R-NH2)][Trp(βS-Me,4-F)]D[dNMeA]G[Bip(4'-COOH)]KL[dS][hTyr])): 0.334 nM. Next, `CC(C)C[C@@H]1NC(=O)[C@H](CCCCN)NC(=O)[C@H](Cc2ccc(-c3ccc(C(=O)O)cc3)cc2)NC(=O)CNC(=O)[C@@H](C)N(C)C(=O)[C@H](CC(=O)O)NC(=O)[C@H]([C@@H](C)c2c[nH]c3cccc(F)c23)NC(=O)[C@@H]2C[C@@H](N)CN2C(=O)CNC(=O)[C@H](Cc2ccc(C(=O)O)cc2)NC(=O)[C@H](Cc2c[nH]c3ccccc23)NC(=O)[C@H](Cc2ccc(-c3ccc(C(=O)O)cc3)cc2)NC(=O)[C@H](CCc2ccc(O)cc2)NC(=O)CNC1=O` [Example 70] (cyclo([Bip(4'-COOH)]W[Phe(4-COOH)]G[Pro(4R-NH2)][Trp(βS-Me,4-F)]D[dNMeA]G[Bip(4'-COOH)]KLG[hTyr])): 0.0973 nM.
